Assay type in all cases: cell-based, Saccharomyces cerevisiae
Test [1] has as its system AH22 strain. Briefly: Antifungal compound sensitivity test, control yeast AH22 strain (Example 9). The following applies: 30° C. 27 hours. The procedure: (§1) The transformed budding yeast AH22-HIK1 prepared in Example 8 was cultured while shaking at 30° C. for 24 hours in a Glu-Leu medium. As a control, the AH22 strain was similarly cultured while shaking at 30° C. for 24 hours in a Glu medium. The absorbance at 600 nm of a cell suspension of each of the grown transformed budding yeasts was measured, and a cell suspension diluted with each medium to the absorbance of 0.1 was prepared. Further, a cell suspension in which the aforementioned cell suspension of the transformed budding yeast AH22-HIK1 was diluted 50-fold with a Glu-Leu medium, and a cell suspension in which the aforementioned cell suspension of AH22 strain was diluted 50-fold with a Glu medium were prepared. A suspension in which each of compounds (1) to (3) was dissolved in dimethylsulfoxide (DMSO) to the concentration of 200 ppm, a solution in which each of Compounds (4) to (5) was dissolved in dimethylsulfoxide (DMSO) to the concentration of 600 ppm, and a solution in which each of Compounds (6) and (7) was dissolved in dimethylsulfoxide (DMSO) to the concentration of 20 ppm were prepared, and two microplates were prepared in which each 1.0 μL per well of the Compound solution and DMSO as a control were dispensed into two wells. In one microplate among them, each 100 μL of a cell suspension of the transformed budding yeast AH22-hiki which had been prepared by dilution as described above was dispensed, and cultured by allowing to stand at 30° C. for 23 hours. In another microplate, each 100 μL of the cell suspensions of control yeast AH22 strain which had been prepared by dilution as described above was dispensed, and cultured by allowing to stand at 30° C. for 27 hours. After culturing, the absorbance at 600 nm of each well was measured with a microplate reader.
(§2) Degree of growths of both of the transformed budding yeasts cultured in the presence of Compounds (1) to (7) and budding yeast as a control therefor are shown in Table 3. Degrees of growths of both of the transformed budding yeasts and budding yeast as a control thereof or are shown by a relative value in percentage, letting the absorbance of 600 nm at the concentration of the Compound of 0 ppm to be […]. It was confirmed that an inhibiting degree of growth of TM182-HIK1 by each test substance was greater than an inhibiting degree of growth of AH22-HIK1 by each test substance, and the TM182-HIK1 was a transformed cell with the enhanced sensitivity to an antifungal-compound as compared with AH22-HIK1.

The test system of test [2] is transformed budding yeast AH22-HIK1. Briefly: Antifungal compound sensitivity test, transformed budding yeast AH22-HIK1 (Example 9). The following applies: 30° C. 23 hours. The procedure:
as §1, §2

The subject of test [3] is transformed budding yeast TM182-HIK1. In words: Antifungal compound sensitivity test of transformed budding yeast TM182-HIK1 (Example 9). The following applies: 30° C. 27 hours; for Degree of growth of budding yeast (%) TM182-HIK1 Gal-Ura-Leu medium: control medium. The procedure: Similarly, the transformed budding yeast TM182-HIK1 prepared in Example 8 was cultured at 30° C. for 24 hours in a Glu-Ura-Leu medium. The absorbance at 600 nm of a cell suspension of the grown transformed budding yeast was measured, and a cell suspension diluted with each medium to the absorbance of 0.1 was prepared. Further, a cell suspension in which the aforementioned cell suspension of the transformed budding yeast TM182-HIK1 was diluted 50-fold with a Glu-Ura-Leu medium and, as a control, a cell suspension in which the suspension was diluted 50-fold with a […] prepared. A suspension in which each of Compounds (1) to (3) was dissolved in dimethylsulfoxide (DMSO) to the concentration of 200 ppm, a solution in which each of Compounds (4) and (5) was dissolved in dimethylsulfoxide (DMSO) to the concentration of 600 ppm, and a solution in which each of Compounds (6) and (7) was dissolved in dimethylsulfoxide (DMSO) to the concentration of 20 ppm were prepared, and two microplates were prepared in which each 1.0 μL per well of the Compound DMSO solution and DMSO as a control were dispensed into two wells. In one microplate among them, each 100 μL of cell suspensions of the transformed budding yeast TM182-HIK1 which had been prepared by dilution with a Glu-Ura-Leu medium as described above was dispensed, and cultured by allowing to stand at 30° C. for 27 hours. In another microplate; as described above, as a control, each 100 μL of cell suspensions of the transformed budding yeast TM182-HIK1 which had been prepared by dilution with a Gal-Ura-Leu medium was dispensed, and cultured by allowing to stand at 30° C. for 27 hours. After culturing, the absorbance at 600 nm of each well was measured with a microplate reader.
as §2

Test [4] deals with AH22 strain. In words: Antifungal compound sensitivity test, control yeast AH22 strain (Example 13). The following applies: 30° C. 24.5 hours, relative value in percentage. The procedure:
The transformed budding yeast AH22-FoOS1 prepared in Example 12 was cultured while shaking at 30° C. for 18 hours in a Glu-Leu medium. As a control, the AH22 strain was similarly cultured while shaking at 30° C. for 18 hours in a Glu medium. The absorbance at 600 nm of each grown transformed budding yeast in a cell suspension was measured, and cell suspension diluted with sterilized distilled water to the absorbance of 0.1 was prepared. Further, a cell suspension in which the aforementioned cell suspension of the transformed budding yeast AH22-FoOS1 was diluted 50-fold with a Glu-Leu medium, and a cell suspension in which the aforementioned cell suspension of the AH22 strain was diluted 50-fold with a Glu medium were prepared.
A solution in which each of Compounds (1) to (3) was dissolved in dimethylsulfoxide (DMSO) to the concentration of 600 ppm, a solution in which each of Compounds (4) and (5) was dissolved in dimethylsulfoxide (DMSO) to the concentration of 2000 ppm, and a solution in which Compounds (6) and (7) was dissolved in dimethylsulfoxide (DMSO) to the concentration of 20 ppm were prepared, and two microplates were prepared in which each 1.0 μL per well of the Compound solution and DMSO as a control were dispensed. In one microplate among them, each. 100 μL of cell suspensions of the transformed budding yeast AH22-FoOS1 which had been prepared by dilution as described above was dispensed, and cultured by allowing to stand at 30° C. for 26.5 hours. In another microplate, each 100 μL of cell suspensions of the control yeast AH22 strain which had been prepared by dilution as described above was dispensed, and cultured by allowing to stand at 30° C. for 24.5 hours. After culturing, the absorbance at 600 nm of each well was measured with a microplate reader.
A degree of growth of the transformed budding yeast is expressed as a relative value in percentage, letting the absorbance at 600 nm at the concentration of the Compound of 0 ppm to be 100. It was confirmed that an inhibiting degree of growth of the transformed budding yeast TM182-FoOS1 by each test substance was grater than an inhibiting degree of growth of the transformed budding yeast AH22-FoOS1 by each test substance, and the transformed budding yeast TM182-FoOS1 was a transformed cell with the enhanced sensitivity to an antifungal compound as compared with the transformed budding yeast AH22-FoOS1.

Turning to `CC12CC1(C)C(=O)N(c1cc(Cl)cc(Cl)c1)C2=O` (centres unmarked) [Compound (1), Procymidone], in the test on AH22 strain [1] (final concentration 2.0 ppm), the “Degree of growth of budding yeast (%) AH22 Glu medium” value (“Degree … (%) AH22 Glu medium” below) stood at 85%. Besides, the “Degree of growth of budding yeast (%) AH22-HIK1 Glu-Leu medium” value (from here on “Degree … (%) AH22-HIK1 Glu-Leu medium”) in test [2] (final concentration 2.0 ppm) was 89%. Further, in test [3] (final concentration 2.0 ppm), the “Degree of growth of budding yeast (%) TM182-HIK1 Gal-Ura-Leu medium” value (“Degree … (%) TM182-HIK1 Gal-Ura-Leu medium” below) amounted to 100% and the “Degree of growth of budding yeast (%) TM182-HIK1 Glu-Ura-Leu medium” value (“Degree … (%) TM182-HIK1 Glu-Ura-Leu medium” below) amounted to 62%. For the same compound, the “Degree of growth of budding yeast AH22 Glu medium” value in the test with AH22 strain [4] (final concentration 6 ppm) stood at 88%.
For the compound `CC(C)NC(=O)N1CC(=O)N(c2cc(Cl)cc(Cl)c2)C1=O` [Compound (2), Iprodione], in the test on AH22 strain [1] (final concentration 2.0 ppm), the “Degree … (%) AH22 Glu medium” value was 96%. Besides, the “Degree … (%) AH22-HIK1 Glu-Leu medium” value in test [2] (final concentration 2.0 ppm) amounted to 84%. Besides, in test [3] (final concentration 2.0 ppm), the “Degree … (%) TM182-HIK1 Gal-Ura-Leu medium” value is on record as 94% and the “Degree … (%) TM182-HIK1 Glu-Ura-Leu medium” value turned out to be 79%. In addition, the “Degree of growth of budding yeast AH22 Glu medium” value in the test on AH22 strain [4] (final concentration 6 ppm) is listed as 91%.
The like results for `C=CC1(C)OC(=O)N(c2cc(Cl)cc(Cl)c2)C1=O` (centres unmarked) [Compound (3), Vinclozolin] were, in that order, 99%, 104%, 100%, 30% and 87%.
With `O=[N+]([O-])c1c(Cl)c(Cl)c(Cl)c(Cl)c1Cl` [Compound (4), Quintozene], in the test with AH22 strain [1] (final concentration 6.0 ppm), the “Degree … (%) AH22 Glu medium” value came to 97%. Moreover, the “Degree … (%) AH22-HIK1 Glu-Leu medium” value in test [2] (final concentration 6.0 ppm) came to 92%. For the same compound, in test [3] (final concentration 6.0 ppm), the “Degree … (%) TM182-HIK1 Gal-Ura-Leu medium” value was determined as 97% and the “Degree … (%) TM182-HIK1 Glu-Ura-Leu medium” value is recorded as 63%. Further, the “Degree of growth of budding yeast AH22 Glu medium” value in the test with AH22 strain [4] (final concentration 20 ppm) was 96%.
In the case of `COP(=S)(OC)Oc1c(Cl)cc(C)cc1Cl` [Compound (5), Tolclofos-methyl], in the test with AH22 strain [1] (final concentration 6.0 ppm), the “Degree … (%) AH22 Glu medium” value was determined as 93%. In test [2] (final concentration 6.0 ppm), the “Degree … (%) AH22-HIK1 Glu-Leu medium” value is listed as 99%. Also, in test [3] (final concentration 6.0 ppm), the “Degree … (%) TM182-HIK1 Gal-Ura-Leu medium” value was 106% and the “Degree … (%) TM182-HIK1 Glu-Ura-Leu medium” value was found to be 22%. Also, the “Degree of growth of budding yeast AH22 Glu medium” value with AH22 strain [4] (final concentration 20 ppm) is 80%.
As to `N#Cc1c[nH]cc1-c1cccc2c1OC(F)(F)O2` [Compound (6), Fludioxonil], the “Degree … (%) AH22 Glu medium” value with AH22 strain [1] (final concentration 0.2 ppm) stood at 101%. The “Degree … (%) AH22-HIK1 Glu-Leu medium” value in test [2] (final concentration 0.2 ppm) is given as 98%. Moreover, in test [3] (final concentration 0.2 ppm), the “Degree … (%) TM182-HIK1 Gal-Ura-Leu medium” value worked out at 104% and the “Degree … (%) TM182-HIK1 Glu-Ura-Leu medium” value is 11%. In addition, the “Degree of growth of budding yeast AH22 Glu medium” value with AH22 strain [4] (final concentration 0.2 ppm) is recorded as 92%.
The like results for `N#Cc1c[nH]cc1-c1cccc(Cl)c1Cl` [Compound (7), Fenpiclonil] were, in that order, 89%, 102%, 87%, 9% and 91%.

Values taken from patent publication US7452688B2, “Transformed cell with enhanced sensitivity to antifungal compound and use thereof” (Sumitomo Chemical Company, Limited, priority 2002, dated 2008).
